Test results taken from patent publication US7906110B2, “Rapid preparation of stem cell matrices for use in tissue and organ treatment and repair” (University of Pittsburgh—of the Commonwealth System of …, priority 2001, dated 2011).

Test system: spontaneous contractile activity of MDSC/SIS preparations
Assay: Pharmacological evaluation on spontaneous contractile activity of MDSC/SIS
Assay type: cell-based
Conditions: for effect on spontaneous contractile activity in MDSC/SIS specimens: added to bath: carbachol 10 and 20 μM, KCI 7%, 1 M, EGTA 200 μM in Ca++-free Krebs
Method: Twenty five preparations of MDSC/SIS and twenty five control preparations of SIS only were incubated at 37° C. for 1, 4, or 8 weeks. The specimens were then mounted in a thermally controlled bath of 5 ml at 37° C. in Krebs solution (mmol/L: NaCl, 113; KCI, 4.7; CaCl2,1.25; MgSO4,1.2; NaHCO3, 25; KH2PO4, 1.2 and glucose, 11.5) with a mixture of 95% 02 and 5% C02. The frequency and amplitude of isometric contractions were measured with strain gauge transducers coupled with a TBM4 strain gauge amplifier and recorded on a computer using a data acquisition program (Windaq, DATAQ Instruments Inc. Akron, Ohio). After 60 minutes of equilibration, electrical field stimuli (10 Hz, 150 volt, 0.5 ms, 60 sec) were applied in the bath. Pharmacological evaluations were performed with succinylcholine (S-Chol), (4, 10 and 20 μM); carbachol (10 and 20 μM); KCI, (7%, 1 M); Ca^++-free Krebs solution with EGTA (200 μM); or distilled water, were each added to the bath sequentially at 30 minute intervals. The frequency, amplitude, and pattern of contraction of the specimens were compared among the different groups.

[Cl-].[K+] [KCI]
effect on spontaneous contractile activity in MDSC/SIS specimens: did not alter

C[N+](C)(C)CCOC(N)=O [carbachol]
effect on spontaneous contractile activity in MDSC/SIS specimens: did not alter

O=C(O)CN(CCOCCOCCN(CC(=O)O)CC(=O)O)CC(=O)O [EGTA]
effect on spontaneous contractile activity in MDSC/SIS specimens: blocked

C[N+](C)(C)CCOC(=O)CCC(=O)OCC[N+](C)(C)C [succinylcholine]
effect on frequency, amplitude or pattern of spontaneous activity (4 μM, any of the preparations): did not alter | frequency and amplitude of spontaneous contractile activity decreased (4-week MDSC/SIS, 10 μM): 2 of 5 | frequency and amplitude of spontaneous contractile activity decreased (4-week MDSC/SIS, 20 μM): 5 of 5 | spontaneous contractile activity blocked (4-week MDSC/SIS, 20 μM): 2 of 5 | frequency and amplitude of spontaneous contractile activity decreased (8-week MDSC/SIS, 10 μM): 8 of 8 | effect on frequency and amplitude of spontaneous contractile activity (8-week MDSC/SIS, 20 μM): decreased | spontaneous contractile activity blocked (8-week MDSC/SIS, 20 μM): 5 of 8 | reversibility of suppressant effects (after washout of the drug): reversible
